Experiments:
[1] = test system: AML-12 hepatocyte cell line; assay: Glutathione assay (total glutathione, GSH-Glo); assay type: cell-based, mouse; details: for EC50: Mus musculus, AML12, AML-12 cells, 24 hours, total glutathione, read-out: GSH EC50 (nM) (Mean ± SD); for GSH EC50 Relative to RTA 402 (fold) (Mean ± SD): benchmark RTA 402
Procedure: The effect of compound treatment on total glutathione levels was evaluated in the mouse AML-12 hepatocyte cell line. Glutathione—a tripeptide consisting of cysteine, glutamate, and glycine—is the major thiol-containing protein within the cell and regulates cellular redox balance. Glutathione also plays important roles in detoxification, protein glutathionylation, and iron-sulfur cluster biogenesis (Bachhawat and Yadav, 2018). Nrf2 regulates the expression of many genes involved in glutathione synthesis and metabolism, including both subunits of glutamate cysteine ligase (GCL), the enzyme that catalyzes the rate limiting step of glutathione biosynthesis (Thimmulappa et al., 2002). […] The next day, cells were treated with vehicle (DMSO) or test compound (0.03 nM to 1000 nM). Each well received a final concentration of 0.1% DMSO. Cells were incubated at 37° C., 5% CO2 for 24 hours. Total glutathione concentrations were measured using the GSH-Glo Glutathione Assay kit (Promega) according to the manufacturer's instructions. Briefly, a standard curve was prepared by serially diluting the provided glutathione solution. […] After a 30-minute incubation at room temperature, 100 μL of Luciferin detection reagent was added to all sample and standard wells and incubated for 15 minutes. Luminescence was measured using a PHERAstar plate reader. The EC50 value was determined using Excel and GraphPad Prism software. The basal concentration of glutathione was set to 0% and the highest concentration of glutathione produced following treatment with a test compound was set to 100% and a dose-response curve was generated. The dose-response curve was fit using nonlinear regression analysis and used to extrapolate the EC50 value.

RAW 264.7 cells = assay: Nitric oxide suppression assay (IFNγ-induced NO production); assay type: cell-based, mouse; details: for IC50: Mus musculus, RAW264.7, RAW 264.7 cells, 2 h pretreatment, 20 ng/mL interferon gamma 24 h, nitrite by Griess, read-out: NO IC50 (nM) (Mean ± SD); for NO IC50 Relative to RTA 402 (fold) (Mean ± SD): average of ratios from replicate experiments, benchmark RTA 402
Procedure: Tissue Culture. RAW 264.7, a mouse macrophage cell line, was obtained from American Type Culture Collection (Manassas VA) and maintained in the log phase of growth in Roswell Park Memorial Institute Medium 1640 (RPMI 1640) supplemented with 10% heat inactivated fetal bovine serum (FBS) and 1% penicillin-streptomycin. Cells were cultured and maintained in a humidified incubator at 37° C. under 5% CO2. Cells were sub-cultured every 3 days. […] All cell culture supplies were obtained from Life Technologies (Grand Island, NY) and VWR (Radnor, PA). Nitric Oxide Suppression Assay. RAW 264.7 cells were plated 1 day in advance of experimental treatments at a concentration of 30,000 cells per well onto Falcon-96 well clear bottom plates (Corning, NY) in a total volume of 200 μL per well using RPMI 1640 supplemented with 0.5% fetal bovine serum and 1% penicillin-streptomycin. The next day, cells were pretreated with compounds serially diluted from 1000× stocks. All compounds were dissolved in dimethyl sulfoxide (DMSO) at 10 mM stock solutions. Compounds were subsequently diluted in DMSO and RPMI 1640. Each well received a final concentration of 0.1% DMSO. Cells were pretreated for 2 hours and incubation at 37° C., followed by treatment with 20 ng/mL of interferon gamma (R&D Systems, Minneapolis, MN) per well for 24 hours. […] Afterwards, 50 μL of cell culture supernatant was transferred from each well into a new Falcon-96 well clear bottom plate. […] Afterwards, air bubbles were removed using ethanol vapor and absorbance was measured using a Spectramax M2e plate reader with a wavelength set to 525 nm. Viability was assessed using WST-1 cell proliferation reagent from Roche (Basel, Switzerland). After media was removed for the Nitric Oxide suppression assay, 15 μL of WST-1 reagent was added to each well of cells. Plates were briefly mixed on an orbital shaker and the cells were incubated at 37° C. for 30 minutes. Absorbance was measured using a Spectramax M2e plate reader with wavelengths set to 440 nm and 700 nm. For the ability of compounds to suppress the increase in nitric oxide release caused by interferon gamma, the absolute amount of nitrite that was produced in each well was extrapolated from the nitrite standards using a linear regression fit. All values were then normalized to the DMSO-interferon gamma treated wells and plotted as percent nitric oxide. IC50 values were calculated with a dependence on WST1 viability using Excel and/or GraphPad Prism (San Diego, CA).

[2] = test system: AREc32 reporter cell line (antioxidant response element of rat Gsta2, Nrf2 target gene); assay: AREc32 luciferase reporter activation; assay type: cell-based, human; details: for AREc32 EC2X Relative to RTA 402 (fold) (Mean ± SD): average of ratios from replicate experiments, benchmark RTA 402; for EC (2-fold): human, Arec32, 19 h, concentration increasing luminescence signal 2-fold above vehicle, nineteen hours, read-out: AREc32 EC2X (nM) (Mean ± SD); for AREc32 Relative to CC in Same Experiment (Mean ± SD): average of ratios from experiments with direct comparisons
Procedure: […] The effect of several compounds disclosed herein on luciferase reporter activation was assessed in the AREc32 reporter cell line (see Table 10 and Table 11). This cell line is derived from human breast carcinoma MCF-7 cells and is stably transfected with a luciferase reporter gene under the transcriptional control of eight copies of the antioxidant response element from the rat Gsta2 gene, an Nrf2 target gene ([…] et al., 1990). […] Twenty-four hours after plating, cells were treated with vehicle (DMSO) or test compounds at concentrations ranging from 0.03 to 1000 nM for nineteen hours. Media was removed and 100 μL of 1:1 mixture of the One-Glo Luciferase assay reagent and culture medium was added to each well. After incubation for 5 min at room temperature, the luminescence signal was measured on a PHERAstar plate reader. The EC2X value was determined using Excel and GraphPad Prism software. The fold increase in luminescence signal for cells treated with each concentration of compound relative to cells treated with vehicle was determined and a dose-response curve was generated. The dose-response curve was fit using nonlinear regression analysis and used to extrapolate the EC2X value.

Row | Structure (SMILES) | EC50 [1] [nM] | GSH EC50 Relative to RTA 402 (fold) (Mean ± SD) [1] | IC50 (RAW 264.7 cells) [nM] | NO IC50 Relative to RTA 402 (fold) (Mean ± SD) (RAW 264.7 cells) | AREc32 EC2X Relative to RTA 402 (fold) (Mean ± SD) [2] | EC (2-fold) [2] [nM] | AREc32 Relative to CC in Same Experiment (Mean ± SD) ([2]; comparison compound CC3) | AREc32 Relative to CC in Same Experiment (Mean ± SD) ([2]; comparison compound CC2)
1 | COCCc1nc([C@]23CCC(C)(C)C[C@H]2[C@H]2C(=O)C=C4[C@@]5(C)C=C(C#N)C(=O)C(C)(C)[C@@H]5CC[C@@]4(C)[C@]2(C)CC3)no1 [Compound T6] | 2.9 ± 0.96 | 1.07 ± 0.28 | 2.95 ± 0.11 | 0.79 ± 0.29 | 1.77 ± 0.15 | 17.66 ± 0.1 |  | 
2 | C[C@@H]1C(=O)C(C#N)=C[C@]2(C)C3=CC(=O)[C@@H]4[C@@H]5CC(C)(C)CC[C@]5(c5nc(C(F)F)no5)CC[C@@]4(C)[C@]3(C)CC[C@@H]12 [Compound T35] | 1.99 ± 0.42 | 1.02 ± 0.04 | 5.48 ± 3.04 | 1.21 ± 0.21 | 0.73 ± 0.14 | 10.7 ± 1.02 | 1.66 ± 0.31 | 
3 | CC1(C)CC[C@]2(c3nc(C(F)F)no3)CC[C@]3(C)[C@H](C(=O)C=C4[C@@]5(C)C=C(C#N)C(=O)C(C)(C)[C@@H]5CC[C@]43C)[C@@H]2C1 [Compound T43] | 3.29 ± 0.55 | 1.60 ± 0.05 | 6.45 ± 1.29 | 1.90 ± 0.49 | 0.62 ± 0.09 | 9.92 ± 2.32 |  | 1.09 ± 0.09
4 | Cc1nc([C@]23CCC(C)(C)C[C@H]2[C@H]2C(=O)C=C4[C@@]5(C)C=C(C#N)C(=O)C(C)(C)[C@@H]5CC[C@@]4(C)[C@]2(C)CC3)no1 [Compound T20] | 1.66 ± 0.66 | 0.96 ± 0.15 | 3.79 | 1.30 ± 0.26 | 1.50 ± 0.18 | 21.5 ± 2.85 |  | 
5 | CC1(C)CC[C@]2(c3noc(CO)n3)CC[C@]3(C)[C@H](C(=O)C=C4[C@@]5(C)C=C(C#N)C(=O)C(C)(C)[C@@H]5CC[C@]43C)[C@@H]2C1 [Compound T4] | 2.46 ± 1.8 | 0.89 ± 0.61 | 1.82 | 0.48 ± 0.13 | 1.04 ± 0.02 | 10.5 ± 1.03 |  | 
6 | CC1(C)CC[C@]2(c3noc(CCN)n3)CC[C@]3(C)[C@H](C(=O)C=C4[C@@]5(C)C=C(C#N)C(=O)C(C)(C)[C@@H]5CC[C@]43C)[C@@H]2C1 [Compound T3] | 1.45 ± 0.28 | 0.54 ± 0.06 | 2.6 | 0.69 ± 0.22 | 0.91 ± 0.29 | 9.21 ± 3.66 |  | 
7 | Cn1nnc([C@]23CCC(C)(C)C[C@H]2[C@H]2C(=O)C=C4[C@@]5(C)C=C(C#N)C(=O)C(C)(C)[C@@H]5CC[C@@]4(C)[C@]2(C)CC3)n1 [Compound T21] | 3.18 ± 2.22 | 0.95 ± 0.34 | 1.89 ± 0.67 | 0.76 ± 0.36 | 1.67 ± 0.15 | 16.2 ± 4.2 |  | 
8 | CC1(C)CC[C@]2(c3nc(CCO)no3)CC[C@]3(C)[C@H](C(=O)C=C4[C@@]5(C)C=C(C#N)C(=O)C(C)(C)[C@@H]5CC[C@]43C)[C@@H]2C1 [Compound T13] | 2.04 ± 1.94 | 0.55 ± 0.33 | 0.56 | 0.22 ± 0.07 | 0.37 ± 0.04 | 3.53 ± 0.98 |  | 0.44 ± 0.07
9 | CCc1nnc([C@]23CCC(C)(C)C[C@H]2[C@H]2C(=O)C=C4[C@@]5(C)C=C(C#N)C(=O)C(C)(C)[C@@H]5CC[C@@]4(C)[C@]2(C)CC3)o1 [Compound T46] | 2.39 ± 0.29 | 1.24 ± 0.17 | 5.44 ± 2.81 | 1.60 ± 0.29 | 1.60 ± 0.44 | 24 ± 1.5 |  | 
10 | CC1(C)CC[C@]2(c3noc(CCO)n3)CC[C@]3(C)[C@H](C(=O)C=C4[C@@]5(C)C=C(C#N)C(=O)C(C)(C)[C@@H]5CC[C@]43C)[C@@H]2C1 [Compound T5] | 1.77 ± 0.98 | 0.65 ± 0.32 | 1.57 | 0.42 ± 0.15 | 1.16 ± 0.19 | 11.7 ± 2.8 |  | 
11 | CCc1noc([C@]23CCC(C)(C)C[C@H]2[C@H]2C(=O)C=C4[C@@]5(C)C=C(C#N)C(=O)C(C)(C)[C@@H]5CC[C@@]4(C)[C@]2(C)CC3)n1 [Compound T23] | 3.26 ± 0.51 | 2.05 ± 0.44 | 4.85 | 1.93 ± 0.54 | 1.43 ± 0.26 | 20.2 ± 2.51 |  | 2.41 ± 0.42
12 | CC1(C)CC[C@]2(c3noc(C(F)(F)F)n3)CC[C@]3(C)[C@H](C(=O)C=C4[C@@]5(C)C=C(C#N)C(=O)C(C)(C)[C@@H]5CC[C@]43C)[C@@H]2C1 [Compound T40] | 18.3 ± 2.19 | 8.96 ± 0.68 | 24.2 ± 7.64 | 7.76 ± 2.19 | 4.76 ± 0.93 | 64.9 ± 12.6 |  | 
13 | CC1(C)CC[C@]2(c3noc(C4CC4)n3)CC[C@]3(C)[C@H](C(=O)C=C4[C@@]5(C)C=C(C#N)C(=O)C(C)(C)[C@@H]5CC[C@]43C)[C@@H]2C1 [Compound T25] | 9.07 ± 1.55 | 3.36 ± 0.34 | 11.2 ± 2.09 | 3.08 ± 1.54 | 4.39 ± 0.23 | 44 ± 1.2 |  | 
